assay: recombinant UMI read abundance after kanamycin selection (control-corrected) (log10(CPM+1)); higher = more efficient recombination; extreme values may be limits of the assay; sequences stand for … in AGTGCAGAGAAAATCGGCCAGTTTTCTCTGCCTGCAGTCCGCATGCCGTGGGACCCCTTGGGTTCTAACCTGTTGCCTAGATTTATGCAGCGGACTGCCTTTCTCCCAAAGTGATAAACCGG…AGGTTGGTTTCACT; site = the 11-nt donor
Outline: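 In Escherichia coli, a pool of donor and donor-binding-loop pairs, each with a 12-nt UMI, was tested for the IS621 bridge recombinase. Plating was on IPTG (0.07 mM) plus kanamycin, or without selection, in two replicates. Recombinant UMIs were amplified by PCR across the donor–target junction and sequenced, and counts were reported as log10(CPM+1) after averaging and control-derived scaling.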
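Also: IS621 bridge recombinase in Escherichia coli cells against a fixed T5 target plasmid.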

Sequence	recombinant UMI read abundance (log10)
GCCCAGCCATGGACCGGTTTTCCCGGTAATCCGTATTTGGT (site GCCCAGCCTAC)	0.0164
GCCCGCTCATGGACCGGTTTTCCCGGTAATCCGTATTTGCG (site GCCCGCTCTCG)	2.44
GCCCGTACATGGACCGGTTTTCCCGGTAATCCGTATTTGCT (site GCCCGTACTAG)	2.32
GCCCTTGCATGGACCGGTTTTCCCGGTAATCCGTATTTGAC (site GCCCTTGCTGT)	1.06
GCCGATGCATGGACCGGTTTTCCCGGTAATCCGTATTTGGA (site GCCGATGCTTC)	1.45
GCCGCGGCATGGACCGGTTTTCCCGGTAATCCGTATTTGGA (site GCCGCGGCTTC)	0.468
GCCTACACATGGACCGGTTTTCCCGGTAATCCGTATTTGTC (site GCCTACACTGA)	1.8
GCCTACCCATGGACCGGTTTTCCCGGTAATCCGTATTTGGC (site GCCTACCCTGC)	0
GCCTATGCATGGACCGGTTTTCCCGGTAATCCGTATTTGTC (site GCCTATGCTGA)	1.57
GCCTCGCCATGGACCGGTTTTCCCGGTAATCCGTATTTGCT (site GCCTCGCCTAG)	0
GCCTCGCCATGGACCGGTTTTCCCGGTAATCCGTATTTGTA (site GCCACGCCTTA)	0.00387
GCCTCGCCATGGACCGGTTTTCCCGGTAATCCGTATTTGTA (site GCCCCGCCTTA)	0.633
GCCTCGCCATGGACCGGTTTTCCCGGTAATCCGTATTTGTA (site GCCGCGCCTTA)	0.00878
GCCTCGCCATGGACCGGTTTTCCCGGTAATCCGTATTTGTA (site GCCTCGCCTTA)	0.0151
GCCTGAACATGGACCGGTTTTCCCGGTAATCCGTATTTGCA (site GCCTGAACTTG)	2.12
GCCTTATCATGGACCGGTTTTCCCGGTAATCCGTATTTGAA (site GCCTTATCTTT)	0.731
GCGAAAACATGGACCGGTTTTCCCGGTAATCCGTATTTGCG (site GCGAAAACTAG)	0
GCGAAAACATGGACCGGTTTTCCCGGTAATCCGTATTTGCG (site GCGAAAACTCG)	2.63
GCGAAAACATGGACCGGTTTTCCCGGTAATCCGTATTTGCG (site GCGAAAACTGG)	0

Sequence	recombinant UMI read abundance (log10)
GCGAAAACATGGACCGGTTTTCCCGGTAATCCGTATTTGCG (site GCGAAAACTTG)	0
GCGAAAACATGGACCGGTTTTCCCGGTAATCCGTATTTGGT (site GCGAAAACTAA)	0.0141
GCGAAAACATGGACCGGTTTTCCCGGTAATCCGTATTTGGT (site GCGAAAACTAC)	1.58
GCGAAAACATGGACCGGTTTTCCCGGTAATCCGTATTTGGT (site GCGAAAACTAG)	0
GCGAAAACATGGACCGGTTTTCCCGGTAATCCGTATTTGGT (site GCGAAAACTAT)	0
GCGAAAGCATGGACCGGTTTTCCCGGTAATCCGTATTTGCT (site GCGAAAACTAG)	0
GCGAAAGCATGGACCGGTTTTCCCGGTAATCCGTATTTGCT (site GCGAAACCTAG)	0
GCGAAAGCATGGACCGGTTTTCCCGGTAATCCGTATTTGCT (site GCGAAAGCTAG)	1.01
GCGAAAGCATGGACCGGTTTTCCCGGTAATCCGTATTTGCT (site GCGAAATCTAG)	0
GCGAACACATGGACCGGTTTTCCCGGTAATCCGTATTTGCT (site GCGAAAACTAG)	0
GCGAACACATGGACCGGTTTTCCCGGTAATCCGTATTTGCT (site GCGAACACTAG)	1.91
GCGAACACATGGACCGGTTTTCCCGGTAATCCGTATTTGCT (site GCGAAGACTAG)	0
GCGAACACATGGACCGGTTTTCCCGGTAATCCGTATTTGCT (site GCGAATACTAG)	0.025
GCGAAGCCATGGACCGGTTTTCCCGGTAATCCGTATTTGTG (site GCGAAGCCTCA)	0.643
GCGAAGCCATGGACCGGTTTTCCCGGTAATCCGTATTTGTG (site GCGAAGCCTCC)	0.021
GCGAAGCCATGGACCGGTTTTCCCGGTAATCCGTATTTGTG (site GCGAAGCCTCG)	0.0255
GCGAAGCCATGGACCGGTTTTCCCGGTAATCCGTATTTGTG (site GCGAAGCCTCT)	1.98
GCGAAGCCATGGACCGGTTTTCCCGGTAATCCGTATTTGTT (site GCGAAGCCTAA)	1.14
GCGACAACATGGACCGGTTTTCCCGGTAATCCGTATTTGCT (site GCGAAAACTAG)	0

Sequence	recombinant UMI read abundance (log10)
GCGACAACATGGACCGGTTTTCCCGGTAATCCGTATTTGCT (site GCGACAACTAG)	1.97
GCGACAACATGGACCGGTTTTCCCGGTAATCCGTATTTGCT (site GCGAGAACTAG)	0
GCGACAACATGGACCGGTTTTCCCGGTAATCCGTATTTGCT (site GCGATAACTAG)	0.37
GCGACAACATGGACCGGTTTTCCCGGTAATCCGTATTTGGT (site GCGACAACTAC)	2.46
GCGATTCCATGGACCGGTTTTCCCGGTAATCCGTATTTGTC (site GCGATTCCTGA)	1.78
GCGCAGCCATGGACCGGTTTTCCCGGTAATCCGTATTTGGG (site GCGAAGCCTCC)	0.0174
GCGCAGCCATGGACCGGTTTTCCCGGTAATCCGTATTTGGG (site GCGCAGCCTCC)	0.00363
GCGCAGCCATGGACCGGTTTTCCCGGTAATCCGTATTTGGG (site GCGGAGCCTCC)	0.0138
GCGCAGCCATGGACCGGTTTTCCCGGTAATCCGTATTTGGG (site GCGTAGCCTCC)	0.0296
GCGCCCTCATGGACCGGTTTTCCCGGTAATCCGTATTTGAC (site GCGCCCTCTGT)	2.76
GCGCCGGCATGGACCGGTTTTCCCGGTAATCCGTATTTGTG (site GCGCCGGCTCA)	0.015
GCGCTCTCATGGACCGGTTTTCCCGGTAATCCGTATTTGCT (site GCGCTCTCTAG)	2.75
GCGGAGTCATGGACCGGTTTTCCCGGTAATCCGTATTTGTT (site GCGGAGTCTAA)	3.15
GCGTATGCATGGACCGGTTTTCCCGGTAATCCGTATTTGTA (site GCGTATGCTTA)	2.99
GCGTGACCATGGACCGGTTTTCCCGGTAATCCGTATTTGCA (site GCGTGACCTTG)	0.00644
GCGTGGTCATGGACCGGTTTTCCCGGTAATCCGTATTTGGC (site GCGTGGTCTGC)	2.06
GCGTTGACATGGACCGGTTTTCCCGGTAATCCGTATTTGAG (site GCGTTGACTCT)	1.98
GCGTTGACATGGACCGGTTTTCCCGGTAATCCGTATTTGCA (site GCGTTGACTTG)	2.59
GCTAATGCATGGACCGGTTTTCCCGGTAATCCGTATTTGCC (site GCTAATGCTGG)	0
